# In patent US9394268B2, “(E)-1-(5-methoxy-2,2-dimethyl-2H-chromen-8-yl)-3-(4-methoxyphenyl)prop-2-en-1-one and analogs thereof, as well as preparation method and use thereof” (Sichuan University, priority 2012, dated 2016):
# How the values were obtained:
# Format in all cases: cell-based
# [1] = test system: HepG2; assay: Cell proliferative assay (MTT), HepG2; settings: Homo sapiens, 72 h incubation, read-out: IC50s HepG2
# Experimental: (§1) The synthesized compounds were evaluated for their cytotoxin activity against suspended tumor cells. These cells were seeded on 96-well plates and incubated for 24 h. Selected compounds were added at various doses and incubated for 72 h, MTT was then added, and the absorbance was measured at a wavelength of 590 nm. IC50 values are expressed as the mean±SEM from the dose-response curves of at least three independent experiments.
# [2] = test system: SW620; assay: Cell proliferative assay (MTT), SW620; settings: Homo sapiens, SW-620, 72 h incubation, read-out: IC50s SW620
# Experimental: as §1
# [3] = test system: HT29; assay: Cell proliferative assay (MTT), HT29; settings: Homo sapiens, HT-29, 72 h incubation, read-out: IC50s HT29
# Experimental: as §1
# [4] = test system: K562; assay: Cell proliferative assay (MTT), K562; settings: Homo sapiens, 72 h incubation, read-out: IC50s K562
# Experimental: as §1
# [5] = test system: HCT116; assay: Cell proliferative assay (MTT), HCT116; settings: Homo sapiens, HCT-116, 72 h incubation, read-out: IC50s HCT116
# Experimental: as §1
# [6] = test system: A549; assay: Cell proliferative assay (MTT), A549; settings: Homo sapiens, 72 h incubation, read-out: IC50s A549
# Experimental: as §1
# [7] = test system: A375; assay: Cell proliferative assay (MTT), A375; settings: Homo sapiens, A-375, 72 h incubation, read-out: IC50s A375
# Experimental: as §1
# [8] = test system: SMMC-7221; assay: Cell proliferative assay (MTT), SMMC-7221; settings: 72 h incubation, read-out: IC50s SMMC-7221
# Experimental: as §1
# [9] = test system: LO2; assay: Cell proliferative assay (MTT), LO2; settings: Homo sapiens, L02, 72 h incubation, read-out: IC50s LO2
# Experimental: as §1
SMILES,IC50 [1] [µM],IC50 [2] [µM],IC50 [3] [µM],IC50 [4] [µM],IC50 [5] [µM],IC50 [6] [µM],IC50 [7] [µM],IC50 [8] [µM],IC50 [9] [µM]
"COc1cccc(/C=C/C(=O)c2ccc(OC)c3c2OC(C)(C)C=C3)c1 [SKLBC-2, (E)-1-(5-methoxy-2,2-dimethyl-2H-chromen-8-yl)-3-(3-methoxyphenyl)prop-2-en-1-one]",> 10,> 10,> 10,> 10,> 10,–,–,–,–
"COc1ccc(C(=O)/C=C/c2cc(OC)c(OC)c(OC)c2)c2c1C=CC(C)(C)O2 [SKLBC-3, (E)-1-(5-methoxy-2,2-dimethyl-2H-chromen-8-yl)-3-(3,4,5-trimethoxyphenyl)prop-2-en-1-one]",> 10,9.15,> 10,> 10,7.65,–,–,–,–
"COc1cc(OC)c(OC)cc1/C=C/C(=O)c1ccc(OC)c2c1OC(C)(C)C=C2 [SKLBC-5, (E)-1-(5-methoxy-2,2-dimethyl-2H-chromen-8-yl)-3-(2,4,5-trimethoxyphenyl)prop-2-en-1-one]",> 10,> 10,> 10,> 10,> 10,–,–,–,–
"COc1ccc(C(=O)/C=C/c2ccc(F)cc2)c2c1C=CC(C)(C)O2 [SKLBC-6, (E)-3-(4-fluorophenyl)-1-(5-methoxy-2,2-dimethyl-2H-chromen-8-yl)prop-2-en-1-one]",> 10,> 10,> 10,> 10,> 10,–,–,–,–
"COc1ccc(C(=O)/C=C/c2cccc(F)c2)c2c1C=CC(C)(C)O2 [SKLBC-7, (E)-3-(3-fluorophenyl)-1-(5-methoxy-2,2-dimethyl-2H-chromen-8-yl)prop-2-en-1-one]",> 10,> 10,> 10,> 10,1.92,–,–,–,–
"COc1ccc(/C=C/C(=O)c2ccc(OC)c3c2OC(C)(C)C=C3)cc1N(CC=C(C)C)CC=C(C)C [SKLBC-88, (E)-3-(3-(bis(3-methylbut-2-en-1-yl)amino)-4-methoxyphenyl)-1-(5-methoxy-2,2-dimethyl-2H-chromen-8-yl)prop-2-en-1-one]",> 10,–,–,7.5,–,> 10,> 10,> 10,9.7
"COc1ccc(/C=C/C(=O)c2ccc(OC)c3c2OC(C)(C)C=C3)cc1NCCN1CCOCC1 [SKLBC-89, (E)-1-(5-methoxy-2,2-dimethyl-2H-chromen-8-yl)-3-(4-methoxy-3-((2-morpholinoethyl)amino)phenyl)prop-2-en-1-one]",0.05,–,–,0.093,–,0.215,0.215,0.245,2.65
"COc1ccc(/C=C/C(=O)c2ccc(OC)c3c2OC(C)(C)C=C3)cc1N(Cc1ccccc1)Cc1ccccc1 [SKLBC-91, (E)-3-(3-(dibenzylamino)-4-methoxyphenyl)-1-(5-methoxy-2,2-dimethyl-2H-chromen-8-yl)prop-2-en-1-one]",> 10,–,–,0.57,–,> 10,> 10,> 10,> 10
"COc1ccc(/C=C/C(=O)c2ccc(OC)c3c2OC(C)(C)C=C3)cc1NC(C)=O [SKLBC-92, (E)-N-(2-methoxy-5-(3-(5-methoxy-2,2-dimethyl-2H-chromen-8-yl)-3-oxoprop-1-en-1-yl)phenyl)acetamide]",2.85,–,–,3.5,–,5,2.15,2.24,> 10
"C=CC(=O)Nc1cc(/C=C/C(=O)c2ccc(OC)c3c2OC(C)(C)C=C3)ccc1OC [SKLBC-94, (E)-N-(2-methoxy-5-(3-(5-methoxy-2,2-dimethyl-2H-chromen-8-yl)-3-oxoprop-1-en-1-yl)phenyl)acrylamide]",> 10,–,–,> 10,–,> 10,> 10,> 10,> 20
"CCCCC(=O)Nc1cc(/C=C/C(=O)c2ccc(OC)c3c2OC(C)(C)C=C3)ccc1OC [SKLBC-95, (E)-N-(2-methoxy-5-(3-(5-methoxy-2,2-dimethyl-2H-chromen-8-yl)-3-oxoprop-1-en-1-yl)phenyl)pentanamide]",> 10,–,–,> 10,–,> 10,> 10,> 10,> 20
"COc1ccc(/C=C/C(=O)c2ccc(OC)c3c2OC(C)(C)C=C3)cc1NC(=O)C(C)C [SKLBC-96, (E)-N-(2-methoxy-5-(3-(5-methoxy-2,2-dimethyl-2H-chromen-8-yl)-3-oxoprop-1-en-1-yl)phenyl)isobutyramide]",> 10,–,–,> 10,–,> 10,> 10,> 10,> 20
"COc1ccc(/C=C/C(=O)c2ccc(OC)c3c2OC(C)(C)C=C3)cc1NC(=O)Cc1cccc(C(F)(F)F)c1 [SKLBC-97, (E)-N-(2-methoxy-5-(3-(5-methoxy-2,2-dimethyl-2H-chromen-8-yl)-3-oxoprop-1-en-1-yl)phenyl)-2-(3-(trifluoromethyl)phenyl)acetamide]",> 10,–,–,> 10,–,> 10,> 10,> 10,> 10
"COc1ccc(/C=C/C(=O)c2ccc(OC)c3c2OC(C)(C)C=C3)cc1NC(N)=O [SKLBC-98, (E)-1-(2-methoxy-5-(3-(5-methoxy-2,2-dimethyl-2H-chromen-8-yl)-3-oxoprop-1-en-1-yl)phenyl)urea]",3.6,–,–,7.85,–,8.6,2.4,9.2,> 10
"COc1ccc(/C=C/C(=O)c2ccc(OC)c3c2OC(C)(C)C=C3)cc1NS(C)(=O)=O [SKLBC-99, (E)-N-(2-methoxy-5-(3-(5-methoxy-2,2-dimethyl-2H-chromen-8-yl)-3-oxoprop-1-en-1-yl)phenyl)methanesulfonamide]",10,–,–,8.85,–,> 10,9,5.6,9.8
"COc1ccc(/C=C/C(=O)c2ccc(OC)c3c2OC(C)(C)C=C3)cc1NS(=O)(=O)C1CC1 [SKLBC-100, (E)-N-(2-methoxy-5-(3-(5-methoxy-2,2-dimethyl-2H-chromen-8-yl)-3-oxoprop-1-en-1-yl)phenyl)cyclopropanesulfonamide]",> 10,–,–,> 10,–,> 10,> 10,> 10,> 20
"COc1ccc(/C=C/C(=O)c2ccc(OC)c3c2OC(C)(C)C=C3)cc1NS(=O)(=O)c1ccc(C)cc1 [SKLBC-101, (E)-N-(2-methoxy-5-(3-(5-methoxy-2,2-dimethyl-2H-chromen-8-yl)-3-oxoprop-1-en-1-yl)phenyl)-4-methylbenzenesulfonamide]",> 10,–,–,> 10,–,> 10,> 10,6.8,> 10
"COc1ccc(/C=C/C(=O)c2ccc(OC)c3c2OC(C)(C)C=C3)cc1NS(=O)(=O)Cc1ccccc1 [SKLBC-102, (E)-N-(2-methoxy-5-(3-(5-methoxy-2,2-dimethyl-2H-chromen-8-yl)-3-oxoprop-1-en-1-yl)phenyl)-1-phenylmethanesulfonamide]",> 10,–,–,> 10,–,> 10,> 10,> 10,> 20
